According to ChEMBL document CHEMBL1138645, “Carbonic anhydrase inhibitors. Interaction of isozymes I, II, IV, V, and IX with phosphates, carbamoyl phosphate, and the phosphonate antiviral drug foscarnet” (Bioorg Med Chem Lett, 2004):
Each block holds one molecule with its values, some of them ahead of it.

What was measured:
[1] = biological target: T1, Carbonic anhydrase 1 (Homo sapiens, UniProt P00915); assay: Inhibition constant of anion against human carbonic anhydrase isozyme hCA I; A = activator
T1 sequence (P00915 whole entry): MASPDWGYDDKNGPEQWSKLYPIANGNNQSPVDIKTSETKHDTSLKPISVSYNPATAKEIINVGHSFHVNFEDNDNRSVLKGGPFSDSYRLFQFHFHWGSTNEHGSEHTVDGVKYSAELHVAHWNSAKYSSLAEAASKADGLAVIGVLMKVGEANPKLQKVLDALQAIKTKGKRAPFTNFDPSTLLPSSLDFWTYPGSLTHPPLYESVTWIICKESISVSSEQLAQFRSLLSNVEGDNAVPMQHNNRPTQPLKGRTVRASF

[2] = biological target: Carbonic anhydrase V (Homo sapiens, UniProt Q9Y2D0+P35218); assay: Inhibition constant of anion against human carbonic anhydrase isozyme hCA V; assay type: protein assay
[3] = biological target: Carbonic anhydrase 2 (Homo sapiens, UniProt P00918); assay: Inhibition constant of anion against human carbonic anhydrase isozyme hCA II
[4] = biological target: Carbonic anhydrase 4 (Homo sapiens, UniProt P22748); assay: Inhibition constant of anion against human carbonic anhydrase isozyme hCA IV
Carbonic anhydrase 4, sequence (P22748 whole entry): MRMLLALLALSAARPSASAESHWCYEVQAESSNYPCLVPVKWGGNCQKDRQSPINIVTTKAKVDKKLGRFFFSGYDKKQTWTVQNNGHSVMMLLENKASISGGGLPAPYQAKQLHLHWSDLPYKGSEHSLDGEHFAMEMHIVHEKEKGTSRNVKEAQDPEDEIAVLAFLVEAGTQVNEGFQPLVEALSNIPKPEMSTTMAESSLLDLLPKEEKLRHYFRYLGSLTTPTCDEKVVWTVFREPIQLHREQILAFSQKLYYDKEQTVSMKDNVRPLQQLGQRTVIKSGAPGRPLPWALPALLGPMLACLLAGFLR

[5] = biological target: Carbonic anhydrase 9 (Homo sapiens, UniProt Q16790); assay: Inhibition constant of anion against human carbonic anhydrase isozyme hCA IX
[6] = biological target: T1, Carbonic anhydrase 1; assay: Inhibition constant of anion against human carbonic anhydrase isozyme hCA I

- Ki [1]: Activator
- Ki [2]: 4.49 mM
SMILES: O=P([O-])([O-])O.[Na+].[Na+] [SODIUM PHOSPHATE, DIBASIC, ANHYDROUS]

SMILES: O=C([O-])P(=O)([O-])[O-].[Na+].[Na+].[Na+] [FOSCARNET SODIUM]
- Ki [1]: Activator
- Ki [2]: 41.7 mM
- Ki [3]: 14.2 mM
- Ki [4]: 0.82 mM
- Ki [5]: 2.21 mM

- Ki [1]: Activator
- Ki [2]: 3.3 mM
SMILES: O=P([O-])(O)O.[Na+] [SODIUM PHOSPHATE, MONOBASIC]

SMILES: O=C[O-].[Na+] [SODIUM FORMATE]
- Ki [1]: Activator
- Ki [2]: 9.97 mM
- Ki [3]: 24 mM
- Ki [5]: 1.22 mM

SMILES: O=C([O-])[O-].[Na+].[Na+] [SODIUM CARBONATE]
- Ki [2]: 95 mM
- Ki [4]: 5.7 mM

SMILES: NC(=O)OP(=O)([O-])[O-].[Na+].[Na+] [CARBAMOYL PHOSPHATE; DI SODIUM]
- Ki [6]: 0.0094 mM
- Ki [2]: 0.0085 mM
- Ki [3]: 0.31 mM
- Ki [4]: 0.0099 mM
- Ki [5]: 3.06 mM

SMILES: O=C([O-])O.[Na+] [SODIUM BICARBONATE]
- Ki [2]: 82 mM
- Ki [4]: 6.6 mM
- Ki [5]: 13 mM
